Data taken from PubChem BioAssay AID489023 (Sanford-Burnham Center for Chemical Genomics, 2010).
Activity calls are given as the source filed them. No rule for the calls is given here.

tested on: 697B cells, BCR-induced NF-kB luciferase reporter luminescence; experiment: B-cell receptor NF-kB reporter inhibition – 697B cells, luciferase luminescence, dose response (AID 489023)

SMILES	IC50
Cc1ccc(/C=C2\SC(=S)N(CCCC(=O)Nc3cc(C)on3)C2=O)cc1	34.3 µM (inactive)
COc1cc(/C(C)=N\NC(N)=S)cc(OC)c1OC	70.7 µM (inactive)
COc1ccc(N(CC(=O)N2CCN(c3ccc(Cl)cc3)CC2)S(=O)(=O)c2c(C)n[nH]c2C)cc1	> 80 µM (inactive)
CCC(=O)N1c2ccccc2[C@@H](N(C(C)=O)c2ccccc2)C[C@H]1C	58.2 µM (inactive)
CCN1CCN(C(=O)CSc2cc(=O)n(CC)c3ccccc23)CC1	> 80 µM (inactive)
Cc1nc2ccccn2c1C(=O)/C=C/c1cccc([N+](=O)[O-])c1	22.8 µM (inactive)
CCN(CC(=O)Nc1c(F)cccc1F)C(=O)c1cc(S(=O)(=O)N2CCOCC2)ccc1N1CCCC1	12.7 µM
O=C(CCCN1C(=O)/C(=C/c2ccccc2Cl)SC1=S)Nc1cccnc1	1.75 µM
Cc1nc2cc(-c3ccc(Cl)cc3)nn2c(C)c1CCC(=O)NCc1ccco1	> 80 µM (inactive)
Cc1c(CCC(=O)NCCCn2ccnc2)c(=O)oc2c(C)c3oc4c(c3cc12)CCCC4	30.4 µM (inactive)
Cc1nc2cc(-c3cccc(F)c3)nn2c(C)c1CCC(=O)NC(C)CCc1ccco1 (stereo not given)	13.8 µM
CCc1ccc(/C=C2\SC(=S)N(CCC(=O)Nc3cc(C)on3)C2=O)cc1	19.3 µM
CN1C(=O)CSc2ccc(NC(=O)N3CCN(c4ccccc4)CC3)cc21	74 µM (inactive)
CC(C)(C)C(=O)/C(=C/c1ccncc1)n1cncn1	3.13 µM
O=C1CCC2S/C(=C/Nc3ccc(C(F)(F)F)cc3)C(=O)N12 (stereo not given)	0.93 µM
CC(C)(C)c1ccc(-c2noc(CCC(=O)Nc3cccnc3)n2)cc1	< 0.16 µM
CC(C)(O)/C=C/C(=O)[C@](C)(O)C1[C@H](O)C[C@@]2(C)C3CC=C4C(C[C@H](O)[C@@H](O)C4(C)C)[C@]3(C)C(=O)C[C@]12C (stereo not given in full)	35.1 µM (inactive)
Cc1ccc(S(=O)(=O)N2CCCCC2CCNC(=O)C(=O)NCc2ccncc2)cc1 (stereo not given)	11 µM
CCOc1ccc(NC(=O)CCCc2cc(-c3ccc(OCC)cc3)on2)cc1	1.95 µM
CCCCn1c2c(c(=N)c3ccccc31)CCC2	> 80 µM (inactive)
CCC(C)(C)c1ccc(OCCCC[n+]2ccccc2)c(C(C)(C)CC)c1	18.2 µM
CCNc1nc(C)c2cc(Br)c(=O)n(CC)c2n1	1.48 µM
Cc1nn(C(C)(C)C)c(C)c1/C=N/OC(=O)Nc1ccc(Cl)c(Cl)c1	0.74 µM
COc1ccc(/C=C2\SC(=S)N(CCC(=O)Nc3cccc(O)c3)C2=O)cc1	> 80 µM (inactive)
N=c1ccn2c(n1)O[C@H]1[C@H](O)[C@@H](CO)O[C@H]12	< 0.16 µM
Cc1nc2cc(-c3ccc(Cl)cc3)nn2c(C)c1CCC(=O)NC(C)c1ccc2c(c1)OCCO2 (stereo not given)	23.7 µM (inactive)
Cc1ccc(Sc2cc(NCCCO)c([N+](=O)[O-])c3nonc23)cc1	> 80 µM (inactive)
CC1CC(C)(C)Nc2ccc(OC(=O)c3ccco3)cc21 (stereo not given)	9.11 µM

SMILES	IC50
Cn1cnc([N+](=O)[O-])c1Sc1ccc([N+](=O)[O-])cc1	3.61 µM
CC(C)c1ccc(/C=C2\SC(=S)N(CCC(=O)NCCCn3ccnc3)C2=O)cc1	16.6 µM
Cc1c(CC(=O)NCCCC(=O)O)c(=O)oc2cc3c(cc12)CCC(C)(C)O3	6.82 µM
CNC(=O)c1cc(Nc2nnc(-c3ccc(O)cc3)c3ccccc23)ccc1OC	> 80 µM (inactive)
CCOC(=O)CNC(=O)CSc1nnc(NC(=O)c2ccc(C)cc2)s1	6.84 µM
COc1ccc(/C=N/OCC(=O)NC(c2ccccc2)c2ccccc2)cc1OC	> 80 µM (inactive)
CCCCOc1ccc(NC(=O)C(=O)NCCCn2ccnc2)cc1	10.9 µM
CCN(CC)CCCN=Cc1c(-c2ccccc2)[nH]n(-c2nc3ccccc3s2)c1=O	17.9 µM
CCN(CC(=O)Nc1c(F)cccc1F)C(=O)c1cc(S(=O)(=O)N(CC)CC)ccc1N1CCCCC1	4.04 µM
CC1Cc2ccccc2N1S(=O)(=O)c1cnc(Cl)c(Br)c1 (stereo not given)	72.9 µM (inactive)
CCn1c(=O)cc(OCC(=O)N(C)C2CCCCC2)c2ccccc21	> 80 µM (inactive)
CC1=CC(C)(C)Nc2ccc(OC(=O)c3cccnc3)cc21	14.3 µM
CC(C)C(c1nnnn1Cc1ccccc1)N(Cc1ccco1)Cc1cccs1 (stereo not given)	> 80 µM (inactive)
COc1ccccc1/C=C1\SC(=S)N(CCC(=O)Nc2nnc(C)s2)C1=O	> 80 µM (inactive)
Cn1c(=O)cc(OCC(=O)N2CCC3(CC2)OCCO3)c2ccccc21	67.5 µM (inactive)
Cn1c(=O)n(C)c2cc(NS(=O)(=O)c3ccccc3)ccc21	38.3 µM (inactive)
CCOC(=O)c1cc2c(=O)n3ccccc3nc2n(CC(C)C)c1=NC(=O)c1c(-c2c(F)cccc2Cl)noc1C	> 80 µM (inactive)
COc1ccc(/C=N\NC(=O)c2sccc2C)cc1Cn1nc(C)cc1C	55.9 µM (inactive)
Cc1cc(C)c2nc(NC(=O)C3CSC4(C)CCC(=O)N34)sc2c1 (stereo not given)	32.2 µM (inactive)
COc1ccc(C=C(C(C)=O)C(C)=O)cc1OC	57.7 µM (inactive)
C(=N\Nc1nc(Nc2ccccc2)nc(Nc2ccccc2)n1)/c1cccnc1	> 80 µM (inactive)
CCc1ccc(/C=C2/SC(=S)N(CCC(=O)Nc3cccc(C(=O)O)c3)C2=O)cc1	> 80 µM (inactive)
COc1ccc(/C=C2\SC(=S)N(CCC(=O)Nc3ccc(O)cc3)C2=O)cc1	> 80 µM (inactive)
COc1ccc(-c2n(Cc3ccccc3)c3ccccc3[n+]2Cc2ccccc2)cc1	> 80 µM (inactive)
COc1ccc(-c2nsc(SCC(=O)Nc3cc(C)on3)n2)cc1	46.3 µM (inactive)
Cc1cc(C)cc(N2C(=O)NC(=O)/C(=C\c3cccn3-c3ccccc3)C2=O)c1	36.4 µM (inactive)
Cc1c(CCC(=O)N2CCC(C(=O)O)(c3ccccc3)CC2)c(=O)oc2cc3oc4c(c3cc12)CCCC4	> 80 µM (inactive)
